Measurements published in patent US20090215884A1, “METHOD FOR WOUND HEALING” (priority 2005, published 2009).

Legend:
[1] = test system: dermal fibroblasts; assay: Fibroblast populated collagen lattice (FPCL) reorganization/contraction; type: cell-based, human; conditions: 0.1 μg/ml PEP005
Excerpt: A normal adult skin biopsy (6 mm) was obtained (n=1), with informed consent, from an individual attending the Oral Surgery Clinic, School of Dentistry, Wales College of Medicine, Cardiff. Following the application of a local anaesthetic, the dermal biopsy was collected and adult dermal fibroblast cultures established by single cell suspension technique, following enzymic degradation of the specimen. This technique has previously been reliably used to establish viable primary cultures of both oral and dermal fibroblasts in vitro (Cook et al, 2000; Stephens et al, 2001; 2003). […]
The ability of dermal fibroblasts to remodel/reorganize their ECM environment in the presence of PEP005 was examined by fibroblast populated collagen lattices (FPCLs), according to Cook et al (2000). […] The degree of ECM reorganization/lattice contraction was quantified from three separate lattice diameter measurements performed on each of the three replicate samples, at days 1, 2, 3, 4, 5, 6, 7, 10 and 14, after initial fabrication. […]
Each experiment was performed on two separate occasions, with the % reductions in lattice contraction and the MMP densitometric values obtained being expressed as an average for each group of samples

[2] = Storage stability of PEP005 preparations; type: physicochemical; conditions: stored at 4° C.
Description: PEP005 was supplied by Peplin Limited, Brisbane, Australia, in 20 mg batches and stored at 4° C. When required, the PEP005 was solubilized in dimethyl sulphoxide (DMSO, >99.9%, Sigma Chemical Co., Dorset, U.K.), at a concentration of 10 mg/ml.
PEP005 was supplied by Peplin Limited, Brisbane, Australia as 0.01% (100 μg/ml), 0.028% (280 μg/ml) and 0.05% (500 μg/ml) preparations in a DMSO/isopropanol-based gel. PEP005-free, DMSO/isopropanol-based carrier gel was also supplied to serve as a vehicle control.

C/C=C(/C)C(=O)O[C@H]1C(C)=C[C@]23C(=O)[C@@H](C=C(CO)[C@@H](O)[C@]12O)[C@H]1[C@@H](C[C@H]3C)C1(C)C [PEP005, ingenol-3-angelate]
Type I collagen lattice contraction [1]: significantly increased
stability of PEP005 gels ([2]; 0.01%, 0.028% and 0.05% preparations in DMSO/isopropanol-based gel): stable for several months
stability of PEP005/DMSO stock solution ([2]; 10 mg/ml in DMSO): stable for several months
